Data set [1] deals with type II collagen-induced arthritis. Conditions: for Inhibition ratio (%): arthritis score 35 days after primary sensitization. As to the method:
8-week-old DBA/1J male mice (7 to 10 mice) were used. 0.1 ml of an emulsion prepared by mixing a 0.1 M solution of acetic acid in physiological saline (2 mg/ml) of type II collagen derived from bovine joint cartilage and complete Freund's adjuvant at a mixing ratio of 1:1 was injected intradermally at the base of the tail in mice (primary sensitization). 21 days later, 0.1 ml of the emulsion prepared in the same manner as in case of primary sensitization was injected subcutaneously again at the back in mice (secondary sensitization). The test compound was suspended in an aqueous 0.5% methyl cellulose solution and administered orally to the mice once a day, which started from the primary or secondary sensitization. After 35 days from the primary sensitization, symptoms of arthritis was visually observed and the results were used a score of arthritis.

The test system of the next data set is CDF1 male mice. The conditions noted are these: single oral administration. Here is the method: 7-week-old CDF1 male mice (6 mice) were used. The compound 1 was suspended in 0.5% methylcellulose and the resulting suspension was orally administered once by oral probe. The mortality rate was investigated after 2 weeks and the LD50 value was calculated by the probit method.

Like-named read-outs stand apart in the source and are kept apart here. Marks after values point to notes of the source that are not given here.

As for `COc1ccc(S(=O)(=O)N(C(C)=O)c2ccccc2/C=C/c2cc[n+]([O-])cc2)cc1` [Compound 1], the “Inhibition ratio (%)” value in data set [1] (1 mg/kg orally once a day, started from the primary sensitization) was −8.5%; in data set [1] (5 mg/kg orally once a day, started from the primary sensitization) it was 69.5* %; in data set [1] (5 mg/kg orally once a day, started from the secondary sensitization) it was 69.6* %; in data set [1] (10 mg/kg orally once a day, started from the secondary sensitization), 100.0** %. Moreover, the “inhibitory effect on type II collagen-induced arthritis (in words)” value in data set [1] (5 mg/kg from the primary sensitization, or 5 and 10 mg/kg from the secondary sensitization) is on record as “significant inhibitory effect”. Besides, the “toxicity (in words)” value in the data set with CDF1 male mice (mice) is “very low toxicity”. Moreover, the LD50 value with CDF1 male mice (mortality after 2 weeks, probit method) was found to be 620.5 mg/kg.
